In patent US8470845B2, “Analgesic and methods of treating pain” (Toray Industries, Inc., priority 2004, dated 2013) one finds ED50 data, which are given here for 21 compounds.

Where a name gives a salt, the structure may show the parent alone.

The first assay deals with male ddY mouse. Put plainly: Analgesic activity test by mouse acetic acid writhing method. The format is in vivo. As to conditions: Mus musculus, subcutaneous, 15 minutes before i.p. 0.6% acetic acid; dosage to halve the number of writhing response; read-out: ED50. As for the experimental part: To each male ddY mouse, each test compound or the vehicle was subcutaneously administered in an administration volume of 0.1 mL/10 g body weight. Fifteen minutes later, 0.1 mL/10 g body weight of aqueous 0.6% (v/v) acetic acid solution was intraperitoneally administered. From 10 minutes after the administration of the acetic acid solution, the number of writhing response (i.e., the behavior to bend the body backward and/or twist the body) during 10 minutes was counted, and the analgesic activity was evaluated based on the number of writhing response. […] 10% Aqueous dimethylsulfoxide (DMSO) was used as a vehicle for test compounds 1, 2, 3, 4, 5, 6, 7, 8, 9, 10, 11, 12, 13, 14, 15, 16, 17, 18, 19, 20, 21 and 22. 0.1% Citric acid/aqueous 5% xylitol was used as a vehicle for test compounds 10f.
(In general: In writhing tests, fewer writhes than in controls are read as antinociception.)
Take `C=CCN1CC[C@]23c4c5ccc(O)c4O[C@H]2[C@@H](N2C(=O)c4ccccc4C2=O)CC[C@@]3(O)[C@H]1C5` [Compound 9, N-(17-allyl-4,5α-epoxy-3,14-dihydroxymorphinan-6α-yl)-phthalimide.tartaric acid salt]: the ED50 was 0.14 mg/kg. Same read-out and setting: the result for `O=C1c2ccccc2CN1[C@@H]1CC[C@@]2(O)[C@H]3Cc4ccc(O)c5c4[C@@]2(CCN3CC2CC2)[C@H]1O5` [Compound 5, 2-(17-cyclopropylmethyl-4,5α-epoxy-3,14-dihydroxy-morphinan-6β-yl)-2,3-dihydroisoindol-1-one.tartaric acid salt] reads 0.071 mg/kg; that for `CCC/C=C1\CC(=O)N([C@@H]2CC[C@@]3(O)[C@H]4Cc5ccc(O)c6c5[C@@]3(CCN4CC3CC3)[C@H]2O6)C1=O` [Compound 6, N-(17-cyclopropylmethyl-4,5α-epoxy-3,14-dihydroxy-morphinan-6β-yl)-2-butylidene succinic imide.tartaric acid salt], 0.48 mg/kg. Same read-out and setting: the result for `O=C1c2ccc(Cl)cc2C(=O)N1[C@@H]1CC[C@@]2(O)[C@H]3Cc4ccc(O)c5c4[C@@]2(CCN3CC2CC2)[C@H]1O5` [Compound 12, N-(17-cyclopropylmethyl-4,5α-epoxy-3,14-dihydroxy-morphinan-6β-yl)-4-chlorophthalimide.tartaric acid salt] reads 0.29 mg/kg; that for `Cl.O=C1CCCN1[C@H]1CC[C@@]2(O)[C@H]3Cc4ccc(O)c5c4[C@@]2(CCN3CC2CC2)[C@H]1O5` [Compound 2, 1-(17-cyclopropylmethyl-4,5α-epoxy-3,14-dihydroxy-morphinan-6α-yl)pyrrolidine-2-one-hydrochloric acid salt], 0.95 mg/kg. On the same count and under the same terms, the result for `Cl.O=C1CCCN1[C@@H]1CC[C@@]2(O)[C@H]3Cc4ccc(O)c5c4[C@@]2(CCN3CC2CC2)[C@H]1O5` [Compound 1, 1-(17-cyclopropylmethyl-4,5α-epoxy-3,14-dihydroxy-morphinan-6β-yl)pyrrolidine-2-one-hydrochloric acid salt] reads 2.62 mg/kg; that for `O=C1c2ccccc2C(=O)N1[C@@H]1CC[C@@]2(O)[C@H]3Cc4ccc(O)c5c4[C@@]2(CCN3CC2CC2)[C@H]1O5` [Compound 10, N-(17-cyclopropylmethyl-4,5α-epoxy-3,14-dihydroxymorphinan-6β-yl)-phthalimide.hydrochloric acid salt], 0.031 mg/kg; that for `O=C1C(Cc2ccccc2)CCN1[C@@H]1CC[C@@]2(O)[C@H]3Cc4ccc(O)c5c4[C@@]2(CCN3CC2CC2)[C@H]1O5` (stereo partly drawn) [Compound 3, 1-(17-cyclopropylmethyl-4,5α-epoxy-3,14-dihydroxy-morphinan-6β-yl)-3-benzyl-pyrrolidine-2-one.tartaric acid salt], 0.28 mg/kg. Take `O=C1c2ccc(F)cc2C(=O)N1[C@@H]1CC[C@@]2(O)[C@H]3Cc4ccc(O)c5c4[C@@]2(CCN3CC2CC2)[C@H]1O5` [Compound 13, N-(17-cyclopropylmethyl-4,5α-epoxy-3,14-dihydroxy-morphinan-6β-yl)-4-fluorophthalimide.tartaric acid salt]: the ED50 amounted to 0.037 mg/kg. Still for that read-out and setting: the result for `O=C1c2cc(Cl)c(Cl)cc2C(=O)N1[C@@H]1CC[C@@]2(O)[C@H]3Cc4ccc(O)c5c4[C@@]2(CCN3CC2CC2)[C@H]1O5` [Compound 17, N-[17-(cyclopropylmethyl)-4,5α-epoxy-3,14-dihydroxymorphinan-6β-yl]]-4,5-dichlorophthalimide.tartaric acid salt] reads 0.27 mg/kg; that for `Cc1cccc2c1C(=O)N([C@@H]1CC[C@@]3(O)[C@H]4Cc5ccc(O)c6c5[C@@]3(CCN4CC3CC3)[C@H]1O6)C2=O` [Compound 15, N-(17-cyclopropylmethyl-4,5α-epoxy-3,14-dihydroxy-morphinan-6β-yl)-3-methylphthalimide.tartaric acid salt], 0.03 mg/kg.

Regarding `O=C1c2cc3ccccc3cc2C(=O)N1[C@@H]1CC[C@@]2(O)[C@H]3Cc4ccc(O)c5c4[C@@]2(CCN3CC2CC2)[C@H]1O5` [Compound 16, N-(17-cyclopropylmethyl-4,5α-epoxy-3,14-dihydroxy-morphinan-6β-yl)naphthalenedicarboxylic imide.hydrochloric acid salt], the 50% effective dose (ED50) came out at 0.31 mg/kg. On the same count and under the same terms, the result for `O=C1c2cccc(F)c2C(=O)N1[C@@H]1CC[C@@]2(O)[C@H]3Cc4ccc(O)c5c4[C@@]2(CCN3CC2CC2)[C@H]1O5` [Compound 14, N-(17-cyclopropylmethyl-4,5α-epoxy-3,14-dihydroxy-morphinan-6β-yl)-3-fluorophthalimide.tartaric acid salt] reads 0.034 mg/kg; that for `O=C1C(Cc2ccccc2)CCN1[C@H]1CC[C@@]2(O)[C@H]3Cc4ccc(O)c5c4[C@@]2(CCN3CC2CC2)[C@H]1O5` (mixture of isomers) [Compound 4, 1-(17-cyclopropylmethyl-4,5α-epoxy-3,14-dihydroxymorphinan-6α-yl)-3-benzyl-pyrrolidine-2-one (diastereomer mixture).tartaric acid salt], 0.26 mg/kg. Still for that read-out and setting: the result for `C=CCN1CC[C@]23c4c5ccc(O)c4O[C@H]2[C@@H](N2C(=O)c4cccc(F)c4C2=O)CC[C@@]3(O)[C@H]1C5` [Compound 8, N-(17-allyl-4,5α-epoxy-3,14-dihydroxy-morphinan-6α-yl)-3-fluorophthal-imide.tartaric acid salt] reads 0.03 mg/kg; that for `O=C1CCC(=O)N1[C@@H]1CC[C@@]2(O)[C@H]3Cc4ccc(O)c5c4[C@@]2(CCN3CC2CC2)[C@H]1O5` [Compound 21, N-(17-cyclopropylmethyl-4,5α-epoxy-3,14-dihydroxy-morphinan-6β-yl)-succinic imide.tartaric acid salt], 3.37 mg/kg.

Turning to `O=C1C=CC(=O)N1[C@@H]1CC[C@@]2(O)[C@H]3Cc4ccc(O)c5c4[C@@]2(CCN3CC2CC2)[C@H]1O5` [Compound 22, N-(17-cyclopropylmethyl-4,5α-epoxy-3,14-dihydroxy-morphinan-6β-yl)-maleic imide.tartaric acid salt], the ED50 stood at 2.18 mg/kg. The same measure, in the same setting: the result for `C=CCN1CC[C@]23c4c5ccc(O)c4O[C@H]2[C@H](N2C(=O)c4ccc(F)cc4C2=O)CC[C@@]3(O)[C@H]1C5` [Compound 7, N-(17-allyl-4,5α-epoxy-3,14-dihydroxymorphinan-6β-yl)-4-fluorophthalimide.tartaric acid salt] reads 0.033 mg/kg. Same read-out and setting: the result for `Cc1ccc2c(c1)C(=O)N([C@@H]1CC[C@@]3(O)[C@H]4Cc5ccc(O)c6c5[C@@]3(CCN4CC3CC3)[C@H]1O6)C2=O` [Compound 11, N-(17-cyclopropylmethyl-4,5α-epoxy-3,14-dihydroxy-morphinan-6β-yl)-4-methylphthalimide.hydrochloric acid salt] reads 0.045 mg/kg.

The assay is the same for the next values; noted with them: subcutaneous, 15 minutes before i.p. 0.6% acetic acid; dosage to halve the number of writhing response.
As for `O=C(O)C(O)C(O)C(=O)O.Oc1ccc2c3c1O[C@H]1[C@H](N4CCCC4)CC[C@@]4(O)[C@@H](C2)N(CC2CC2)CC[C@]314` [Compound 20, 17-cyclopropylmethyl-4,5α-epoxy-6β-(pyrrolidine-1-yl)-morphinan-3,14-diol.tartaric acid salt, reference compound], the ED50 was >10 mg/kg. Still for that read-out and setting: the result for `O=C(O)C(O)C(O)C(=O)O.O=C1C2=C(CCCC2)C(=O)N1[C@@H]1CC[C@@]2(O)[C@H]3Cc4ccc(O)c5c4[C@@]2(CCN3CC2CC2)[C@H]1O5` [Compound 19, N-(17-cyclopropylmethyl-4,5α-epoxy-3,14-dihydroxy-morphinan-6β-yl)-3,4,5,6-tetrahydrophthalimide.tartaric acid salt] reads 0.032 mg/kg.

As usually defined, the ED50 is the dose that gives a 50% effect, or the effect in half of the subjects.
